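Following 48 hours of exposure in 96-well plates, responses at five concentrations were used to interpolate endpoints linearly. TGI marks complete inhibition of growth.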
Assays:
Assay in all cases: DTP human tumour cell line panel, 48 h
NCI-H23 lung = test system: NCI-H23 lung
NCI/ADR-RES ovarian = test system: NCI/ADR-RES ovarian
RPMI-8226 leukemia = test system: RPMI-8226 leukemia
HOP-62 NSCLC = test system: HOP-62 NSCLC
BT-549 breast = test system: BT-549 breast
SK-OV-3 ovarian = test system: SK-OV-3 ovarian
CCRF-CEM leukemia = test system: CCRF-CEM leukemia
KM12 colon = test system: KM12 colon
MDA-N = test system: MDA-N
SK-MEL-5 melanoma = test system: SK-MEL-5 melanoma
LOX IMVI melanoma = test system: LOX IMVI melanoma
SN12C renal = test system: SN12C renal
T-47D breast = test system: T-47D breast
SF-268 CNS = test system: SF-268 CNS

Compound	TGI (NCI-H23 lung)	TGI (NCI/ADR-RES ovarian)	TGI (RPMI-8226 leukemia)	TGI (HOP-62 NSCLC)	TGI (BT-549 breast)	TGI (SK-OV-3 ovarian)	TGI (CCRF-CEM leukemia)	TGI (KM12 colon)	TGI (MDA-N)	TGI (SK-MEL-5 melanoma)	TGI (LOX IMVI melanoma)	TGI (SN12C renal)	TGI (T-47D breast)	TGI (SF-268 CNS)
COc1cc(O)c2c(=O)cc(C3(OC(C)=O)C=CC(OC4OC(CO)C(O)C(O)C4O)C=C3)oc2c1 (stereo unspecified)	> 100 µM	> 100 µM	> 100 µM	> 100 µM	> 100 µM	> 100 µM	> 100 µM	> 100 µM	> 100 µM	> 100 µM	> 100 µM	> 100 µM	> 100 µM	
Cc1ccc(NC(=O)c2cc(S(=O)(=O)N3CCNNC3=O)c(S)cc2Cl)cc1		> 100 µM	> 100 µM		87.6 µM		> 100 µM	> 100 µM	> 100 µM	> 100 µM	> 100 µM	> 100 µM	> 100 µM	> 100 µM
CCOC(=O)C(NC(=O)Nc1ccccc1F)(OC)C(F)(F)F (stereo unspecified)	> 100 µM	> 100 µM	> 100 µM		> 100 µM	> 100 µM	> 100 µM		> 100 µM	> 100 µM	> 100 µM	> 100 µM	> 100 µM	> 100 µM
O=c1[nH]nc(Cc2ccc(Cl)cc2)n1Nc1ccccc1	> 100 µM	> 100 µM		> 100 µM	> 100 µM		> 100 µM	> 100 µM	> 100 µM	> 100 µM	> 100 µM	> 100 µM	> 100 µM	
c1ccc2c(-c3ccnc(-c4c[nH]c5ccccc45)n3)c[nH]c2c1		> 100 µM	4.61 µM	28.7 µM	> 100 µM	> 100 µM	3.32 µM	23.9 µM	7.33 µM	15 µM	10.1 µM	19.7 µM	26.9 µM	> 100 µM
CC(=O)/C(=C\n1c(=S)[nH]c2ccc([N+](=O)[O-])cc21)C(=O)Nc1ccccc1C	> 100 µM	> 100 µM	> 100 µM	> 100 µM	> 100 µM	> 100 µM	> 100 µM		> 100 µM	> 100 µM	> 100 µM	> 100 µM	> 100 µM	
CCCNc1c(Cl)cc(Cl)c2[nH]c3ccccc3c(=O)c12	> 100 µM	> 100 µM	> 100 µM	> 100 µM	> 100 µM	> 100 µM	> 100 µM	> 100 µM	> 100 µM	> 100 µM	> 100 µM	> 100 µM	> 100 µM	
CCC1c2[nH]c3ccccc3c2C[C@H]2C(=O)NC(Cc3ccccc3)C(=O)N12 (stereo partly specified)	> 100 µM	95.3 µM	51.3 µM	> 100 µM	62.4 µM	> 100 µM		66 µM	67.5 µM	35.5 µM	45.8 µM	79.9 µM	73.1 µM	66.3 µM
CC1=NN(c2ccccc2Cl)C2(C1)SCC(=O)N2c1nc2ccccc2s1 (stereo unspecified)	> 100 µM	> 100 µM	> 100 µM	> 100 µM	> 100 µM	> 100 µM		> 100 µM	> 100 µM	> 100 µM	> 100 µM	> 100 µM	> 100 µM	> 100 µM
CCC/C(Cl)=N/OC(=O)Nc1cccc(F)c1	38.2 µM	> 21.1 µM	8.08 µM	29.9 µM	10.4 µM	31 µM		31.2 µM	23.1 µM	20.4 µM	5.42 µM	15.2 µM	6.34 µM	> 54.4 µM
O=[N+]([O-])c1ccc2nc(/C=C(\O)c3ccccc3)c(/C=C(\O)c3ccc(Cl)cc3)nc2c1	> 100 µM	> 100 µM		88.2 µM	> 100 µM	> 100 µM	> 100 µM	> 100 µM	> 100 µM	> 100 µM		> 100 µM	> 100 µM	> 100 µM
N/C(=N/O)c1cn(C2OC(CO)C(O)C2O)c2ncnc(NO)c12 (stereo unspecified)	2.29 µM	7.19 µM	1.86 µM	> 100 µM	> 100 µM				> 100 µM	0.892 µM	4.53 µM	> 100 µM	> 35.3 µM	> 100 µM
CC(=O)Nc1ccccc1S(=O)(=O)c1c(-c2c(C)c(Cl)c(C)c(Cl)c2C)noc1C	> 100 µM	> 100 µM	> 100 µM	50 µM	> 100 µM	> 100 µM	71.2 µM	> 100 µM	> 100 µM	> 100 µM		> 100 µM	> 100 µM	> 100 µM
COC(=O)c1c(OC(C)=O)ccc2c1c1c(n2Cc2ccccc2)C(=O)c2ccccc2C1=O	42.1 µM	61.6 µM	36.4 µM	44.5 µM	48.5 µM	66.9 µM	68.6 µM	47.4 µM	38.3 µM	28.1 µM		37.5 µM	56.3 µM	78.1 µM
CC(C)(C)OC(=O)N1CCC[C@H]1CSC[C@@H]1CCCN1C(=O)OC(C)(C)C	68.2 µM	48.9 µM		> 100 µM	58.9 µM	> 100 µM	44.8 µM	48.2 µM	> 100 µM	32.7 µM	35.2 µM	> 100 µM	80.7 µM	> 100 µM

Reference: PubChem BioAssay (NCI)
